The values that follow come from patent publication US10829473B2, “Modulators of the cystic fibrosis transmembrane conductance regulator protein and methods of use” (AbbVie Overseas S.Á.R.L., priority 2017, dated 2020).

The target of this test is T1, F508delCFTR (Homo sapiens, UniProt P13569, DEL508-508).
T1 construct: expressed in transfected cells; host or cells: CFBE41o- human lung derived epithelial cells (CFBE41o-F508delCFTR-HRP), doxycycline-inducible
In words: Cell Surface Expression-Horse Radish Peroxidase (CSE-HRP) Assay.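 As to EC50 (with co-corrector): co-corrector chromenyl benzoic acid corrector at 2 or 3 µM.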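 As to Maximum % activity (without co-corrector): % of on-plate positive control chromenyl benzoic acid corrector at 2 or 3 µM.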 In kind it is cell-based. The conditions noted are these: for Maximum % activity (with co-corrector) / Emax: maximum at any tested concentration; for Emax: read-out: Maximum % activity (without co-corrector). In outline:
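Corrector compounds were given as 8-point 3-fold series from 20 or 30 μM, with or without a 2 μM co-corrector, for 18-24 h at 33 °C. Surface HRP was read by luminol luminescence as % of positive control; variable-Hill-slope sigmoidal fitting gave EC50 from triplicate plates.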

Setting [1] is: test compound alone, without co-corrector, read-out: EC50 (without co-corrector).
Where [2] appears, read: with co-corrector, read-out: EC50 (with co-corrector).

The structures appear in SMILES notation. Read-outs that look alike come from different tables or passages of the source.

T1 sequence (P13569 with tags, fused parts or gaps DEL508-508): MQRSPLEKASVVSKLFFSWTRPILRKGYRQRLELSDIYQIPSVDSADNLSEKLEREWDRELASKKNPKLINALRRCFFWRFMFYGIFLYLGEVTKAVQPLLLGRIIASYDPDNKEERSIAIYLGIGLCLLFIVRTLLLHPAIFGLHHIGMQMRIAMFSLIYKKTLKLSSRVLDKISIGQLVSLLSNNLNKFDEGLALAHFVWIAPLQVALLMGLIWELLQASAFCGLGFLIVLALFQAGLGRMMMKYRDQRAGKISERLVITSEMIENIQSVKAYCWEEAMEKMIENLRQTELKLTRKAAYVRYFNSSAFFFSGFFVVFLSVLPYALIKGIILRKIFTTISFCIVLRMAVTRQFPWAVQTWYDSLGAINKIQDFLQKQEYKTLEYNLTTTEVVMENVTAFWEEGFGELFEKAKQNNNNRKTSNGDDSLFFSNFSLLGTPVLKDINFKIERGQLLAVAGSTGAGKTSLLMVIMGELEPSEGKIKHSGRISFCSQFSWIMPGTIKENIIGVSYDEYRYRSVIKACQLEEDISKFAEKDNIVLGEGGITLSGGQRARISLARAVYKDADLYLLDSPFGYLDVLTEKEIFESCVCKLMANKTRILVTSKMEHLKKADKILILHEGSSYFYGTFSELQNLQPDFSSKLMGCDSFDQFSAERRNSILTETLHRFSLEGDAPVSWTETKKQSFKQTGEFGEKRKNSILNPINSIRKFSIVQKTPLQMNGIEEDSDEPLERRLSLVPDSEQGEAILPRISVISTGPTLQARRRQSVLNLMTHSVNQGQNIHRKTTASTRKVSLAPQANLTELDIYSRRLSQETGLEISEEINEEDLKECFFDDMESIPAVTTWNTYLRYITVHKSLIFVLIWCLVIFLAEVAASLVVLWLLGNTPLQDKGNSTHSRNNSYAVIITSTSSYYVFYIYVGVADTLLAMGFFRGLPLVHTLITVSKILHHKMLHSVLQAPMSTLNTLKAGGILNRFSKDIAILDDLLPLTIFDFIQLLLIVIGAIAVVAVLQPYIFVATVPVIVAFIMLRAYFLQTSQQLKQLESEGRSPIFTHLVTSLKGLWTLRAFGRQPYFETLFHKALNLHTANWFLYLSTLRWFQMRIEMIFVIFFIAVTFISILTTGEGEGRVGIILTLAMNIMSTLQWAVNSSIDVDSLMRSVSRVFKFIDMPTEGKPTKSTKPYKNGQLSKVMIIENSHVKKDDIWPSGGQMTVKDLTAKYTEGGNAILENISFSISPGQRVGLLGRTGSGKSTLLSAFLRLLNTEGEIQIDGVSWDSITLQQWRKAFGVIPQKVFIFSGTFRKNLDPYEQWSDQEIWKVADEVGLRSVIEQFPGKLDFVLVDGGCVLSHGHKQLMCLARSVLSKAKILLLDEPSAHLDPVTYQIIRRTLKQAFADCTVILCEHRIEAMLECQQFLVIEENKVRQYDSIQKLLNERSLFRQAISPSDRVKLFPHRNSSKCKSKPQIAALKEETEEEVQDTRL

Broadly, the EC50 is the concentration at which the effect is half-maximal. Take `O=C(NS(=O)(=O)Cc1ccccc1)C1(c2cccc(Cl)c2)CC1` [Example III-109, 1-(3-chlorophenyl)-N-(phenylmethanesulfonyl)cyclopropane-1-carboxamide]: the EC50 is, setting by setting: under setting [1], more than 10 µM; under setting [2], more than 10 µM. The “Maximum % activity (with co-corrector)” value (with co-corrector) is recorded as “+ (<150)”. The Emax (without co-corrector) is less than 50%.
With `Cc1ccc(C2(C(=O)NS(=O)(=O)Cc3ccccc3)CC2)cc1` [Example III-111, 1-(4-methylphenyl)-N-(phenylmethanesulfonyl)cyclopropane-1-carboxamide], the EC50 under setting [1] is more than 10 µM and the EC50 under setting [2] lay within 3 to 10 µM. Further, the “Maximum % activity (with co-corrector)” value (with co-corrector) was “++ (≥150 and <350)”. The Emax (without co-corrector) was less than 50%.
In the case of `O=C(NS(=O)(=O)Cc1ccccc1)C1(c2ccc(F)cc2)CC1` [Example III-112, 1-(4-fluorophenyl)-N-(phenylmethanesulfonyl)cyclopropane-1-carboxamide], the EC50 under setting [1] was more than 10 µM and the EC50 under setting [2] was more than 10 µM. The “Maximum % activity (with co-corrector)” value (with co-corrector) was “+ (<150)”. Further, the Emax (without co-corrector) was less than 50%.
As for `O=C(NS(=O)(=O)Cc1ccccc1)C1(c2ccccc2Cl)CC1` [Example III-113, 1-(2-chlorophenyl)-N-(phenylmethanesulfonyl)cyclopropane-1-carboxamide], the EC50 by setting is: under setting [1], more than 10 µM; under setting [2], 3 to 10 µM. Also, where the note is “with co-corrector”, the “Maximum % activity (with co-corrector)” value is “++ (≥150 and <350)”. The Emax (without co-corrector) was less than 50%.
For the compound `O=C(NS(=O)(=O)Cc1ccccc1)C1(c2ccc(Cl)cc2)CC1` [Example III-114, 1-(4-chlorophenyl)-N-(phenylmethanesulfonyl)cyclopropane-1-carboxamide], the EC50 is more than 10 µM under setting [1] and 3 to 10 µM under setting [2]. Moreover, where the note is “with co-corrector”, the “Maximum % activity (with co-corrector)” value is reported as “+ (<150)”. Also, under “without co-corrector”, the Emax was less than 50%.
On to `O=C(NS(=O)(=O)Cc1ccccc1)C1(c2ccc(Cl)c(Cl)c2)CC1` [Example III-115, 1-(3,4-dichlorophenyl)-N-(phenylmethanesulfonyl)cyclopropane-1-carboxamide], for which the EC50 is more than 10 µM under setting [1] and more than 10 µM under setting [2]. For the same compound, the “Maximum % activity (with co-corrector)” value (with co-corrector) is given as “+ (<150)”. Also, the Emax (without co-corrector) is less than 50%.
`CCC(CC)S(=O)(=O)NC(=O)C1(c2ccccc2)CC1` [Example III-116, N-(pentane-3-sulfonyl)-1-phenylcyclopropane-1-carboxamide]: the EC50 is more than 10 µM under setting [1] and more than 10 µM under setting [2]. The “Maximum % activity (with co-corrector)” value (with co-corrector) was “+ (<150)”. In addition, the Emax (without co-corrector) was less than 50%.
Consider `CCCS(=O)(=O)NC(=O)C1(c2cccc(OC)c2)CCOCC1` [Example III-119, 4-(3-methoxyphenyl)-N-(propane-1-sulfonyl)oxane-4-carboxamide], for which the EC50 by setting is: under setting [1], more than 10 µM; under setting [2], more than 10 µM. In addition, the “Maximum % activity (with co-corrector)” value (with co-corrector) was “+ (<150)”. Moreover, where the note is “without co-corrector”, the Emax is less than 50%.
Regarding `CCCS(=O)(=O)NC(=O)C1(c2cccc(C)c2)CCOCC1` [Example III-120, 4-(3-methylphenyl)-N-(propane-1-sulfonyl)oxane-4-carboxamide], the EC50 is, setting by setting: under setting [1], more than 10 µM; under setting [2], more than 10 µM. Further, the “Maximum % activity (with co-corrector)” value (with co-corrector) is “+ (<150)”. For the same compound, the Emax (without co-corrector) is less than 50%.
Consider `COc1ccc(C2(C(=O)NS(=O)(=O)c3cccc4ccccc34)CCC2)cc1OC` [Example III-121, 1-(3,4-dimethoxyphenyl)-N-(naphthalene-1-sulfonyl)cyclobutane-1-carboxamide], for which the EC50 was more than 10 µM under setting [1] and more than 10 µM under setting [2]. For the same compound, under “with co-corrector”, the “Maximum % activity (with co-corrector)” value was “+ (<150)”. Moreover, for the setting “without co-corrector”, the Emax is less than 50%.
In the case of `COc1cccc(-c2cnn(C)c2)c1C1(C(=O)NS(=O)(=O)c2cccc3ncccc23)CC1` [Example III-122, 1-[2-methoxy-6-(1-methyl-1H-pyrazol-4-yl)phenyl]-N-(quinoline-5-sulfonyl)cyclopropane-1-carboxamide], the EC50 under setting [1] fell in the range of 3 to 10 µM and the EC50 under setting [2] was in the range of 3 to 10 µM. Moreover, the “Maximum % activity (with co-corrector)” value (with co-corrector) is recorded as “+++ (≥350)”. Further, the Emax (without co-corrector) is more than 150%.
For the compound `COc1cc(C2CCC2)cc(OC)c1C1(C(=O)NS(=O)(=O)c2cccc3ncn(C)c23)CC1` [Example III-123, 1-(4-cyclobutyl-2,6-dimethoxyphenyl)-N-(1-methyl-1H-benzimidazole-7-sulfonyl)cyclopropane-1-carboxamide], the EC50 was 3 to 10 µM under setting [1] and less than 3 µM under setting [2]. Moreover, the “Maximum % activity (with co-corrector)” value (with co-corrector) was “+++ (≥350)”. Also, the Emax (without co-corrector) was more than 150%.
For `COc1ccc(C)nc1C1(C(=O)NS(=O)(=O)c2cccc3ncccc23)CC1` [Example III-124, 1-(3-methoxy-6-methylpyridin-2-yl)-N-(quinoline-5-sulfonyl)cyclopropane-1-carboxamide] the same measures were 3 to 10 µM, 3 to 10 µM, “+++ (≥350)” and 50 to 150%.
Consider `COc1ccc(C)nc1C1(C(=O)NS(=O)(=O)c2cccc3ccccc23)CC1` [Example III-125, 1-(3-methoxy-6-methylpyridin-2-yl)-N-(naphthalene-1-sulfonyl)cyclopropane-1-carboxamide], for which the EC50 lay within 3 to 10 µM under setting [1] and 3 to 10 µM under setting [2]. Moreover, the “Maximum % activity (with co-corrector)” value (with co-corrector) is listed as “+++ (≥350)”. In addition, for the setting “without co-corrector”, the Emax was more than 150%.
As to `COc1ccc(C)nc1C1(C(=O)NS(=O)(=O)c2cccc3nc(C)ccc23)CC1` [Example III-126, 1-(3-methoxy-6-methylpyridin-2-yl)-N-(2-methylquinoline-5-sulfonyl)cyclopropane-1-carboxamide], the EC50 is less than 3 µM under setting [1] and less than 3 µM under setting [2]. In addition, the “Maximum % activity (with co-corrector)” value (with co-corrector) was “++ (≥150 and <350)”. For the same compound, the Emax (without co-corrector) was in the range of 50 to 150%.
For the compound `Cc1ccc(C)c(C2(C(=O)NS(=O)(=O)c3cccc4[nH]ncc34)CC2)c1` [Example III-127, 1-(2,5-dimethylphenyl)-N-(1H-indazole-4-sulfonyl)cyclopropane-1-carboxamide], the EC50 by setting is: under setting [1], 3 to 10 µM; under setting [2], less than 3 µM. For the same compound, the “Maximum % activity (with co-corrector)” value (with co-corrector) is “+++ (≥350)”. Also, the Emax (without co-corrector) is more than 150%.
Regarding `COc1ccc(C2(OC)COC2)cc1C1(C(=O)NS(=O)(=O)c2cccc3ncccc23)CC1` [Example III-128, 1-[2-methoxy-5-(3-methoxyoxetan-3-yl)phenyl]-N-(quinoline-5-sulfonyl)cyclopropane-1-carboxamide], the EC50 lay within 3 to 10 µM under setting [1] and 3 to 10 µM under setting [2]. Besides, the “Maximum % activity (with co-corrector)” value (with co-corrector) is “++ (≥150 and <350)”. Besides, for the setting “without co-corrector”, the Emax is less than 50%.
With `[2H]C1(c2ccc(OC)c(C3(C(=O)NS(=O)(=O)c4cccc5ncccc45)CC3)c2)COC1` [Example III-129, 1-{2-methoxy-5-[(3-^2H)oxetan-3-yl]phenyl}-N-(quinoline-5-sulfonyl)cyclopropane-1-carboxamide], the half-maximal effective concentration (EC50) runs as follows: under setting [1], 3 to 10 µM; under setting [2], 3 to 10 µM. In addition, for the setting “with co-corrector”, the “Maximum % activity (with co-corrector)” value was “+++ (≥350)”. Under “without co-corrector”, the Emax was more than 150%.
